In one data set the test system is P-glycoprotein. The data set is described as follows: Functionality of the P-glycoprotein: passage of rhodamine 123 with or without Zosuquidar, primary murine devices. It counts as in vitro ADME, mouse. As for the experimental part:
This functionality test is carried out with rhodamine 123, because it is known that this molecule as a substrate for the P-glycoprotein is expelled by the P-glycoprotein into the luminal compartment, which thus limits its passage through the device. The culture media are replenished: 1 mL in the abluminal compartment and 250 μL in the luminal compartment either containing or not containing the Zosuquidar inhibitor of P-glycoprotein P at 5 μM (Dantzig et al. 1996). The devices are incubated for 2 hrs in the incubator. Then, 250 μL of medium containing 2 μM rhodamine 123 with or without 5 μM Zosuquidar are added into the luminal compartment and incubated for 1 hr in the incubator. […] The reading of the fluorescence intensity is done on the same apparatus as for the permeability test (described above). The λex of the rhodamine is 500 nm and the λem is 524 nm.
Indeed it is known that rhodamine 123 as a substrate for glycoprotein P is expelled by the glycoprotein P into the luminal compartment, which limits the passage thereof through the device. Zosuquidar is an inhibitor of P-glycoprotein, therefore its use should limit the efflux of rhodamine 123 into the luminal compartment.
As in Example 4, the passage of rhodamine 123 in the presence or absence of Zosuquidar was studied.

A further data set relates to P-gp glycoprotein. The data set is described as follows: Functionality of P-glycoprotein in the commercially available device (Rhodamine 123 with or without Zosuquidar). The data set is classed as in vitro ADME, rat. The following applies: commercially available model. The method, then: Here again, the functionality of the commercially available model was evaluated by studying the passage of Rhodamine 123 in the presence or absence of the specific inhibitor of the P-gp glycoprotein, Zosuquidar.

Another data set deals with P-gp efflux pump. The data set is described as follows: Functionality of P-glycoprotein on murine devices with immortalised cell lines.
For data set [1] the following is noted: known ability; cited from earlier work.

On to rhodamine 123, for which the “passage of Rhodamine123 to the luminal side after addition into the abluminal compartment” value in the data set with P-glycoprotein (24- and 96-well format devices) is “comparable to cell-free HEBs”. Moreover, the “passage of Rhodamine123 to the abluminal side” value in the data set on P-glycoprotein (24- and 96-well format devices, added luminal) is “passes very little on to the abluminal side”. In addition, in the data set with P-glycoprotein (device WT, 1 hr incubation), the “decrease of the passage of rhodamine 123 to the abluminal compartment as compared to the device without cells” value is 72.6%. For the same molecule, in the data set on P-gp glycoprotein (regardless of the side where it is deposited), the “efflux of Rhodamine123” value came out at 97%. Also, the “limitation of the passage of Rhodamine 123 on the abluminal side” value in the data set with P-gp efflux pump (12-, 24-, and 96 well plate formats) is given as “more than 60%”.

For the molecule `O=C1CN=C(c2ccccn2)c2cc(Br)ccc2N1` [BROMO, Bromazepam], the “Passage through the HEB” value in data set [1] is recorded as “+”.

Turning to `OC[C@H]1O[C@@](CO)(O[C@H]2O[C@H](CO)[C@@H](O)[C@H](O)[C@H]2O)[C@@H](O)[C@@H]1O` [SUC, Sucrose], in data set [1], the “Passage through the HEB” value is recorded as “+”.

In the case of `O[C@@H](COc1cccc2ncccc12)CN1CCN([C@@H]2c3ccccc3[C@@H]3[C@H](c4ccccc42)C3(F)F)CC1` [Zosuquidar], the “inhibition of the efflux (of rhodamine 123) by the specific P-glycoprotein inhibitor” value in the data set on P-glycoprotein (5 μM Zosuquidar, device WT) came out at 57.3%. Moreover, the “effect on P-gp functionality” value with P-glycoprotein (24- and 96-well format devices) is given as “inhibited”. In addition, the “effect of Zosuquidar on Rhodamine 123 passage” value in the data set with P-gp glycoprotein is given as “no effect”. For the same molecule, in data set [1], the “Passage through the HEB” value was “−”. Further, the “effect of the specific Glycoprotein P inhibitor” value in the data set with P-gp efflux pump (all the formats) was “does not show any effect”.

As for `Clc1ccc(C(c2ccccc2Cl)C(Cl)Cl)cc1` (centres unmarked) [MITO, Mitotane], in data set [1], the “Passage through the HEB” value is given as “−”.

Take `NCCc1ccc(O)c(O)c1` [DA, Dopamine]: the “Passage through the HEB” value in data set [1] is recorded as “−”.

(Values after patent US20220010258A1, “DEVICE THAT CAN SERVE AS A HEMATO-ENCEPHALITIC BARRIER MODEL” (priority 2017, published 2022).)
